Assay results: patent publication US20260258084A1, “New Peptides as Selective IL-23 Receptor Antagonists” (Sanofi, priority 2022, published 2026)
Starred links: 1 amine or outer side, 2 acyl side, 3 side chain; linkers in the order of their positions; H or OH if unused. Positions of bridges follow the written chain, without caps; N, C: chain ends. Non-standard residues stand in square brackets, D forms with d. Residues, ends and D or L forms follow the SMILES beside them. *: point of attachment. Trp(7-Me) = Cc1cccc2c(C[C@H](N)C(=O)O)c[nH]c12; X1 = O=C(CCCCN[*:3])N[C@@H](CS[*:2])C(=O)[*:1]; αMeLys(Me2) = CN(C)CCCC[C@](C)(N)C(=O)O; 2Nal = N[C@@H](Cc1ccc2ccccc2c1)C(=O)O; 3Pal = N[C@@H](Cc1cccnc1)C(=O)O; αMeL = CC(C)C[C@](C)(N)C(=O)O; Suc = O=C(CCC(=O)[*:2])[*:1]; Me2NCH2CH2 = CN(C)CC*; Aib = CC(C)(N)C(=O)O; Ava = NCCCCC(=O)O; Sar = CNCC(=O)O

What was measured:
[1] = target: T1, human interleukin-23 receptor (recombinant human IL-23R-Fc chimera) (Homo sapiens, UniProt Q5VWK5); assay: Human ELISA IL23/IL23R (assay for specific human IL23R antagonists); assay type: binding; details: Table 10; read-out: Human ELISA IL23/IL23R IC50
T1 construct: Fc (IgG Fc fusion)
How it was run: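 Competition format: peptide dilutions compete for IL23R-Fc chimera (0.1 μg/ml final, 60 min, room temperature) binding to immobilized human IL23 coated at […] overnight at 4 °C. Read-out is fluorogenic HRP signal from goat anti-hu-IgG1 detecting captured receptor.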

[2] = system: IL-23 induced STAT3 signaling in HEK-Blue™ IL-23 cells; assay: IL-23 induced STAT3 signaling in HEK-Blue IL-23 cells (SEAP reporter); assay type: cell-based; details: human IL23 0.25 ng/ml, read-out: pSTAT3
How it was run: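 Secreted SEAP, read at OD 620-655 nm after 45 min QUANTI-Blue development, reports STAT3 activation. Beforehand, cells were exposed to peptide dilutions for 60 min at 37 °C and then to 0.25 ng/ml final human IL-23 overnight, at 10,000 cells/well.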

Pepsin = system: T2, Pepsin; assay: Protease stability in simulated gastric fluid (Pepsin-SGF, FaSSGF); assay type: in vitro ADME; details: simulated gastric fluid with pepsin (Pepsin-SGF), 60 min, 1 μM peptide, 37° C., read-out: FaSSGF 60 (min), remaining percent of peptide
T2 construct: purchased Merck Millipore
Protocol: (§1) Studies were carried out in simulated intestinal fluid (SIF) and simulated gastric fluid (SGF) to evaluate gastric stability of the peptide compounds disclosed herein.
For clarification the term “Pepsin-SGF” refers to a solution of simulated gastric fluid containing pepsin whereas “SGF media” refers to a solution of simulated gastric fluid without pepsin. Pepsin-SGF was prepared by dissolving 320 mg Pepsin (Merck Millipore) in 100 mL SGF media concentrate (ProSense).
(§2) Peptides were first dissolved at 1 mM stock concentration in 0.01 HCl (+/−10% of DMSO) and were than diluted further with water to a stock concentration of 20 μM. Final peptide concentration in the incubation was 1 μM.
(§3) To 76 μL of the Pepsin-SGF buffer, 4 μL of the 20 μM peptide stock solution was added and incubated at 37° C. At each timepoint (0, 60, 120 and 240 minutes) the reaction was quenched with addition of 80 μL Ethanol (0.1% HCOOH). The samples were centrifuged for 20 minutes and an aliquot of the supernatant 100 μL were transferred to a LoBind-MTP plate and analyzed by LCMS/MS. The peak area response was calculated at each time point for each test compound. As internal reference, the peak area response of the same test compound at TO was calculated. The percent remaining at each timepoint was calculated based on the peak area response ratio of the test compound at TO. Time 0 was set to 100%, and all later timepoints were calculated relative to time 0.

Pancreatin = assay: Protease stability in simulated intestinal fluid (Pancreatin-SIF, FaSSIF); assay type: in vitro ADME; details: 1 μM peptide, 37° C.; for remaining at 1 h, 1 µM: 60 min, read-out: FaSSIF 60 (min), remaining percent of peptide; for remaining at 2 h, 1 µM: 120 min, read-out: FaSSIF 120 (min), remaining percent of peptide; for remaining at 4 h, 1 µM: 240 min, read-out: FaSSIF 240 (min), remaining percent of peptide
Protocol: as §1
Similarly, the term “Pancreatin-SIF” refers to a solution of simulated intestinal fluid containing pancreatin whereas “SIF-media” refers to a solution of simulated intestinal fluid without pancreatin.
Pancreatin-SIF was prepared by dissolving 1 mg Pancreatin (MP Biomedicals) in 10 mL SIF media concentrate (ProSense).
as §2
as §3, with “µM” for “μM”

Structure (SMILES) | IC50 [1] [nM] | IC50 [2] [nM] | remaining at 1 h, 1 µM (Pepsin) [%] | remaining at 1 h, 1 µM (Pancreatin) [%] | remaining at 2 h, 1 µM (Pancreatin) [%] | remaining at 4 h, 1 µM (Pancreatin) [%]
Cc1cccc2c(C[C@@H]3NC(=O)[C@H]([C@@H](C)O)NC(=O)[C@H](CC(N)=O)NC(=O)[C@@H]4CSSC[C@H](NC(=O)[C@H](CC(C)C)NC3=O)C(=O)N[C@@H](Cc3ccc(OCCN(C)C)cc3)C(=O)N[C@@H](Cc3ccc5ccccc5c3)C(=O)N[C@@](C)(CCCCN(C)C)C(=O)N[C@H](C(=O)N[C@@H](CC(N)=O)C(=O)N[C@@H](Cc3cccnc3)C(=O)N(C)CC(N)=O)CCCCNC(=O)CCC(=O)N4)c[nH]c12 [compound 154] (CNT[Trp(7-Me)]LCY(Me2NCH2CH2)[2Nal][αMeLys(Me2)]KN[3Pal][Sar]-NH2; disulfide 1-6; linker N-10 via Suc) | 0.52 | 0.08 | 96 | 99 | 97 | 96
CC(=O)NCCCC[C@@H]1NC(=O)[C@H](Cc2c[nH]c3ccccc23)NC(=O)[C@H]([C@@H](C)O)NC(=O)[C@H](CC(N)=O)NC(=O)[C@@H]2CSSC[C@H](NC1=O)C(=O)N[C@@H](Cc1ccc(OCCN(C)C)cc1)C(=O)N[C@@H](Cc1ccc3ccccc3c1)C(=O)N[C@@](C)(CCCCN(C)C)C(=O)N[C@H](C(=O)N[C@@H](CC(N)=O)C(=O)N[C@@H](Cc1cccnc1)C(=O)N(C)CC(N)=O)CCC(=O)NCCCCC(=O)N2 [compound 58] ([Ava]CNTWK(Ac)CY(Me2NCH2CH2)[2Nal][αMeLys(Me2)]EN[3Pal][Sar]-NH2; disulfide 2-7; lactam N-11) | 0.16 | 0.1 | 93 | 100 | 98 | 80
CC(=O)N[C@H]1CCCCNC(=O)[C@@H]2CSSC[C@H](NC(=O)[C@H](CCC(N)=O)NC(=O)[C@H](Cc3c[nH]c4ccccc34)NC1=O)C(=O)N[C@@H](Cc1ccc(OCCN(C)C)cc1)C(=O)N[C@@H](Cc1ccc3ccccc3c1)C(=O)NC(C)(C)C(=O)N[C@H](C(=O)N[C@@H](CC(N)=O)C(=O)NCC(N)=O)CCC(=O)NCCCCC(=O)N2 [compound 29] (Ac-KWQCY(Me2NCH2CH2)[2Nal][Aib]ENG-NH2; linker 1-4-8 via X1) | 0.45 | 8.16 | 70 | 73 | 58 | 47
CC(=O)NCCCC[C@@H]1NC(=O)[C@H](Cc2c[nH]c3c(C)cccc23)NC(=O)[C@H]([C@@H](C)O)NC(=O)[C@H](CC(N)=O)NC(=O)[C@@H]2CSSC[C@H](NC1=O)C(=O)N[C@@H](Cc1ccc(OCCN(C)C)cc1)C(=O)N[C@@H](Cc1ccc3ccccc3c1)C(=O)NC(C)(C)C(=O)N[C@H](C(=O)N[C@@H](CC(N)=O)C(=O)N[C@@H](Cc1c[nH]cn1)C(N)=O)CCC(=O)NCCCCC(=O)N2 [compound 20] ([Ava]CNT[Trp(7-Me)]K(Ac)CY(Me2NCH2CH2)[2Nal][Aib]ENH-NH2; disulfide 2-7; lactam N-11) | 0.5 | 3.12 | 95 | 85 | 81 | 72
CC(=O)NCCCC[C@@H]1NC(=O)[C@H](Cc2c[nH]c3c(C)cccc23)NC(=O)[C@H]([C@@H](C)O)NC(=O)[C@H](CC(N)=O)NC(=O)[C@@H]2CSSC[C@H](NC1=O)C(=O)N[C@@H](Cc1ccc(OCCN(C)C)cc1)C(=O)N[C@@H](Cc1ccc3ccccc3c1)C(=O)NC(C)(C)C(=O)N[C@H](C(=O)N[C@@H](CC(N)=O)C(=O)N[C@@H](Cc1cccnc1)C(=O)N(C)CC(N)=O)CCCCNC(=O)CCC(=O)N2 [compound 157] (CNT[Trp(7-Me)]K(Ac)CY(Me2NCH2CH2)[2Nal][Aib]KN[3Pal][Sar]-NH2; disulfide 1-6; linker N-10 via Suc) | 0.42 | 0.06 | 100 | 80 | 78 | 74
Cc1cccc2c(C[C@@H]3NC(=O)[C@H]([C@@H](C)O)NC(=O)[C@H](CC(N)=O)NC(=O)[C@@H]4CSSC[C@H](NC(=O)[C@H](CCC(N)=O)NC3=O)C(=O)N[C@@H](Cc3ccc(OCCN(C)C)cc3)C(=O)N[C@@H](Cc3ccc5ccccc5c3)C(=O)NC(C)(C)C(=O)N[C@H](C(=O)N[C@@H](CC(N)=O)C(=O)N[C@@H](Cc3cccnc3)C(=O)N(C)CC(N)=O)CCC(=O)NCCCCC(=O)N4)c[nH]c12 [compound 62] ([Ava]CNT[Trp(7-Me)]QCY(Me2NCH2CH2)[2Nal][Aib]EN[3Pal][Sar]-NH2; disulfide 2-7; lactam N-11) | 0.35 | 0.2 | 100 | 95 | 87 | 84
CC(=O)NCCCC[C@@H]1NC(=O)[C@H](Cc2c[nH]c3c(C)cccc23)NC(=O)[C@@H](NC(C)=O)CCCCNC(=O)[C@@H]2CSSC[C@H](NC1=O)C(=O)N[C@@H](Cc1ccc(OCCN(C)C)cc1)C(=O)N[C@@H](Cc1ccc3ccccc3c1)C(=O)N[C@@](C)(CC(C)C)C(=O)N[C@H](C(=O)N[C@@H](CC(N)=O)C(=O)N[C@@H](Cc1cccnc1)C(=O)N(C)CC(N)=O)CCC(=O)NCCCCC(=O)N2 [compound 73] (Ac-K[Trp(7-Me)]K(Ac)CY(Me2NCH2CH2)[2Nal][αMeL]EN[3Pal][Sar]-NH2; linker 1-4-8 via X1) | 0.58 | 0.1 | 87 | 82 | 81 | 77
CC(=O)NCCCC[C@@H]1NC(=O)[C@H](Cc2c[nH]c3c(C)cccc23)NC(=O)[C@H]([C@@H](C)O)NC(=O)[C@H](CC(N)=O)NC(=O)[C@@H]2CSSC[C@H](NC1=O)C(=O)N[C@@H](Cc1ccc(OCCN(C)C)cc1)C(=O)N[C@@H](Cc1ccc3ccccc3c1)C(=O)N[C@@](C)(CC(C)C)C(=O)N[C@H](C(=O)N[C@@H](CC(N)=O)C(=O)N[C@@H](Cc1c[nH]cn1)C(N)=O)CCC(=O)NCCCCC(=O)N2 [compound 22] ([Ava]CNT[Trp(7-Me)]K(Ac)CY(Me2NCH2CH2)[2Nal][αMeL]ENH-NH2; disulfide 2-7; lactam N-11) | 0.49 | 1.37 | 60 | 82 | 79 | 79
CC(=O)NCCCC[C@@H]1NC(=O)[C@H](Cc2c[nH]c3c(C)cccc23)NC(=O)[C@@H](NC(C)=O)CCCCNC(=O)[C@@H]2CSSC[C@H](NC1=O)C(=O)N[C@@H](Cc1ccc(OCCN(C)C)cc1)C(=O)N[C@@H](Cc1ccc3ccccc3c1)C(=O)NC(C)(C)C(=O)N[C@H](C(=O)N[C@@H](CC(N)=O)C(=O)N[C@@H](Cc1cccnc1)C(=O)N(C)CC(N)=O)CCC(=O)NCCCCC(=O)N2 [compound 72] (Ac-K[Trp(7-Me)]K(Ac)CY(Me2NCH2CH2)[2Nal][Aib]EN[3Pal][Sar]-NH2; linker 1-4-8 via X1) | 0.59 | 0.12 | 92 | 91 | 90 | 83
